Test results taken from ChEMBL document CHEMBL1201862, “PubChem BioAssay data set” (2004).
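Step 1: Grow cells in 96-well plates. Step 2: Expose to compound for 48 hours at 5 concentrations. Step 3: Interpolate endpoints linearly; if unreached, use highest concentration. Here, GI50 denotes the concentration required for 50% inhibition of growth.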 Calls of active or inactive are those of the source. No stated cut-off is given here; in the data, active = GI50 up to about 1.1 µM and inactive = higher.

Key:
Test in all cases: NCI-60 cell line screen, 48 h
HL-60 = test system: HL-60
SK-MEL-2 = test system: SK-MEL-2
MOLT-4 = test system: MOLT-4
PC-3 = test system: PC-3
IGROV-1 = test system: IGROV-1
M14 = test system: M14
T47D = test system: T47D
HT-29 = test system: HT-29
LOX IMVI = test system: LOX IMVI
HCT-116 = test system: HCT-116
OVCAR-3 = test system: OVCAR-3
HOP-62 = test system: HOP-62
OVCAR-8 = test system: OVCAR-8
UACC-257 = test system: UACC-257
A498 = test system: A498
SW-620 = test system: SW-620
DU-145 = test system: DU-145
A549 = test system: A549
UO-31 = test system: UO-31
NCI/ADR-RES = test system: NCI/ADR-RES

Measured: GI50

CC(C)c1ccc(/C=C2\N=C(c3ccc([N+](=O)[O-])cc3)OC2=O)cc1
inactive: HL-60 > 100 µM | SK-MEL-2 > 100 µM | MOLT-4 > 100 µM | PC-3 > 100 µM | IGROV-1 > 100 µM | M14 > 100 µM | T47D > 100 µM | HT-29 > 100 µM | LOX IMVI > 100 µM | HCT-116 > 100 µM | OVCAR-3 > 100 µM | HOP-62 > 100 µM | OVCAR-8 > 100 µM | UACC-257 > 100 µM | A498 > 100 µM | SW-620 > 100 µM | DU-145 > 100 µM | A549 > 100 µM

CCc1cccc(CC)c1Nc1nc2c(s1)C(=O)c1ccccc1C2=O
inactive: HL-60 26.4 µM | SK-MEL-2 18.6 µM | MOLT-4 23.2 µM | PC-3 13.3 µM | UO-31 15.4 µM | IGROV-1 12.2 µM | M14 17.4 µM | T47D 33.6 µM | LOX IMVI 18 µM | HCT-116 16.7 µM | OVCAR-3 13.7 µM | HOP-62 16 µM | UACC-257 19.5 µM | A498 > 10 µM | SW-620 26.1 µM | DU-145 21.6 µM | A549 31.4 µM

CCN(CC)c1ccc2cc(C(N)=S)c(=N)oc2c1
inactive: HL-60 > 100 µM | SK-MEL-2 > 100 µM | MOLT-4 > 100 µM | PC-3 > 100 µM | UO-31 > 100 µM | IGROV-1 > 100 µM | NCI/ADR-RES > 100 µM | M14 > 100 µM | T47D > 100 µM | HT-29 > 100 µM | LOX IMVI > 100 µM | HCT-116 > 100 µM | HOP-62 > 100 µM | OVCAR-8 > 100 µM | UACC-257 > 100 µM | SW-620 > 100 µM | DU-145 > 100 µM | A549 > 100 µM

O=C1NC(=S)N/C1=C\c1ccc(Cl)cc1
inactive: SK-MEL-2 > 100 µM | MOLT-4 80.2 µM | PC-3 > 100 µM | UO-31 53.7 µM | IGROV-1 > 100 µM | NCI/ADR-RES > 100 µM | M14 > 100 µM | T47D 42.5 µM | HT-29 > 100 µM | LOX IMVI > 100 µM | HCT-116 > 100 µM | OVCAR-3 > 100 µM | HOP-62 > 100 µM | OVCAR-8 > 100 µM | SW-620 > 100 µM | DU-145 99.8 µM | A549 93.1 µM
